The results in this text go back to patent publication US8993634B2, “Methods and use of compounds that bind to Her2/neu receptor complex” (The Trustees Of The University Of Pennsylvania, priority 2010, dated 2015).

The test system of one assay is T6-17 cells. Put plainly: Anchorage-independent growth (soft agar colony) screening, T6-17 cells. In kind it is cell-based, murine. Conditions: p<0.05, FIG. 1. The procedure:
(§1) Targeted molecules were screened in vitro for anti-tumor activity using a modified […] growth of transformed cell assay, as described in Fukazawa et al. (1995), Anal. Biochem., 10:83-90. Anchorage-independent growth capability is perhaps the best indicator of the malignant phenotype and is determined by efficiency of cells to form colonies in soft agar (Drebin, et al., 1985). All experiments were conducted in 6 cm dishes in triplicate. Agar bottom layers consisted of 3 ml 0.25% agarose/DMEM (Dulbecco's Modified Eagle Medium) supplemented with 10% FBS (Fetal Bovine Serum), 2 mM L-glutamine, and 100μ/ml Penicillin/1 μg/ml Streptomycin. About 1000-2000 cells T6-17/SK-BR-3 are layered on the top in 1 ml 0.18% agarose/DMEM, 10% FBS, 2 mM L-glutamine, and 100 u/ml Penicillin/i 1 μg/ml Streptomycin. Cultures were treated every 3 days with 0.5 ml of supplemented DMEM containing measured amounts of the Her2 inhibitors, or DMSO (dimethyl sulfoxide) alone. On the day before the colonies were counted, the samples were incubated with 1 ml of Hank's Balanced Salt Solution containing 1 mg/ml p-iodonitrotetrazolium violet (INT, Sigma) to stain colonies. The next day, colonies were counted using a 7× achromatic magnifying eyepiece (Bausch and Lomb). Triplicate cultures were counted on day 21 and will be verified by at least two different persons. […]

The subject of another assay is SK-BR-3 cells. In words: Anchorage-independent growth (soft agar colony) screening, SK-BR-3 cells. It is filed as cell-based, human. Conditions: p<0.05, FIG. 1. The procedure: as §1

Turning to `CC(C)(C#Cc1cc(C(F)(F)F)cc(C(F)(F)F)c1)NC(=S)Nc1cccc(F)c1` [S22—04], the “cellular growth in culture (colonies in soft agar)” value in the assay on T6-17 cells and in the assay on SK-BR-3 cells was “reduced cellular growth in culture” in each case.
